biological target: T1, H^+ /K^+ -ATPase (Sus scrofa, UniProt P19156); test: Inhibitory Action on H^+ /K^+ -ATPase Activity; format: biochemical; settings: microsome fraction from porcine gastric mucosa, pH7.4, 37° C., 30 min preincubation, 15 min reaction
T1 construct: a microsome fraction prepared from porcine gastric mucosa was used as a standard enzyme; from tissue; host or cells: porcine gastric mucosa, microsome fraction
Description: Inhibitory Action on H^+ /K^+ -ATPase Activity
According to the method of Hongo et al. [The Japanese Journal of Pharmacology, 52, p295, (1990)], a microsome fraction prepared from porcine gastric mucosa was used as a standard enzyme. The standard enzyme (10-20lig protein) and the test compound (0.1-100 μM) dissolved in dimethylsulfoxide was incubated at 37° C. for 30 minutes in the 50 mM Tris-acetate buffer (pH7.4, containing 2 mM magnesium chloride, 5 mM potassium chloride). The enzyme reaction was started by adding adenosinetriphosphate (ATP). Tris at the final concentration of 2 mM, and the reaction was kept at 37° C. for 15 minutes. The reaction was stopped by adding chilled 10% trichloroacetic acid. Inorganic phosphate released during the reaction was calorimetrically determined according to the method of Fiske-Subbarow [The Journal of Biological Chemistry, 66, p375, (1925)]. H^+ /K^+ -ATPase activity was determined by the difference of the enzyme activities under the conditions with or without potassium chloride. The inhibitory activities of test compounds were determined as the 50% inhibitory concentration (IC50 value) from reaction-concentration curve, and the results are shown in Table 3.

T1 sequence (P19156 2-1034 limits assumed): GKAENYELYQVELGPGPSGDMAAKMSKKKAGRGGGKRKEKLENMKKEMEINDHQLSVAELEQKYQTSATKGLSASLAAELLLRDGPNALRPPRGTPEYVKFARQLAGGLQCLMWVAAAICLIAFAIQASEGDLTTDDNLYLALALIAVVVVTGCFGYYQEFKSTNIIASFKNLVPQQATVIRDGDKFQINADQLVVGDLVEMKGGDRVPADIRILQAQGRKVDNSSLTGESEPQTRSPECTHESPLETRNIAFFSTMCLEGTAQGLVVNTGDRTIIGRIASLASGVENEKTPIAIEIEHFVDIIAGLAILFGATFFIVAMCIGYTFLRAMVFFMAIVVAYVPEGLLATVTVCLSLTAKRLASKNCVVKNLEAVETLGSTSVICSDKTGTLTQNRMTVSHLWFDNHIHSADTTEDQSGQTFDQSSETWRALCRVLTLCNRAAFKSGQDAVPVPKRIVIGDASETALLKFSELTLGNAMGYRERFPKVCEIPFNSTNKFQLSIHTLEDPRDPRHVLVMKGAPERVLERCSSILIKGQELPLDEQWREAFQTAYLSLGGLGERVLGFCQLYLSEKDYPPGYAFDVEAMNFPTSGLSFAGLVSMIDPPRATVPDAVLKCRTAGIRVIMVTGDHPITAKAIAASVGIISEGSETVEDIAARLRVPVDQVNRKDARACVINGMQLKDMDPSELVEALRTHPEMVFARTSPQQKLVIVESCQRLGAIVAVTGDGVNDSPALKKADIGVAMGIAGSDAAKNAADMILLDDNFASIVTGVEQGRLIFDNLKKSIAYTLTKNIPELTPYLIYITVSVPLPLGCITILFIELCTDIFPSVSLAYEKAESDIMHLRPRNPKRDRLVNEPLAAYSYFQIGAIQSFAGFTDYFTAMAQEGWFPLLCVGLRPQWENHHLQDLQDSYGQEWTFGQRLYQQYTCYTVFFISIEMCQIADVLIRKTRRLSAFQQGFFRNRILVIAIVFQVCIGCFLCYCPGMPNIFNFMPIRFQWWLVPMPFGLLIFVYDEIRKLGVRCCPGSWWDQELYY
T1 sequence (P18434 whole entry partner): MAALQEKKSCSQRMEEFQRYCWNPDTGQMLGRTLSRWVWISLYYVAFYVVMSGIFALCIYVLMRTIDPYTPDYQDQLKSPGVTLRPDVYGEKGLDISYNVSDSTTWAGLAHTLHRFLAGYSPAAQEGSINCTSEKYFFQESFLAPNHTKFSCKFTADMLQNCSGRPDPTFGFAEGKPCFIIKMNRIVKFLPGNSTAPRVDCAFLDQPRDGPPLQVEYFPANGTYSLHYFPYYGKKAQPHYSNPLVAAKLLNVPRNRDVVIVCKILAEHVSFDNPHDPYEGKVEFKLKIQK

| IC50 [µM] | Compound |
| --- | --- |
| 20 | Cc1ccc2ccn3c(N)c(-c4ccccc4C)nc3c2c1 [Compound 10, 3-Amino-9-methyl-2-(2-methylphenyl)imidazo[2,1-a]isoquinoline] |
| 12.5 | CCCc1cc2ccccc2c2nc(-c3ccccc3C)c(N)n12 [Compound 12] |
| 3.7 | Cc1ccccc1-c1nc2c3ccccc3c(CCC(C)C)cn2c1N [Compound 15, 3-Amino-6-isopentyl-2-(2-methylphenyl)imidazo[2,1-a]isoquinoline] |
| 7.4 | COc1ccc(-c2cn3c(N)c(-c4ccccc4C)nc3c3ccccc23)cc1 [Compound 21, 3-Amino-6-(4-methoxyphenyl)-2-(2-methylphenyl)imidazo[2,1-a]isoquinoline] |
| 1.9 | Cc1ccccc1-c1nc2c3cc(O)ccc3ccn2c1N [Compound 22, 3-Amino-9-hydroxy-2-(2-methylphenyl)imidazo[2,1-a]isoquinoline] |
| 13.5 | COc1cn2c(N)c(-c3ccccc3C)nc2c2ccccc12 [Compound 24, 3-Amino-6-methoxy-2-(2-methylphenyl)imidazo[2,1-a]isoquinoline] |
| 4.8 | Cc1ccccc1-c1nc2c3ccccc3c(OCc3ccccc3)cn2c1N [Compound 38, 3-Amino-6-benzyloxy-2-(2-methylphenyl)imidazo[2,1-a]isoquinoline] |
| 1 | CCN(CC)c1cccc2c1ccn1c(N)c(-c3ccccc3C)nc21 [Compound 54, 3-Amino-7-diethylamino-2-(2-methylphenyl)imidazo[2,1-a]isoquinoline] |
| 17 | Cc1sccc1-c1nc2c3ccccc3ccn2c1N [Compound 78, 3-Amino-2-(2-methyl-3-thienyl)imidazo[2,1-a]isoquinoline] |
| 5.6 | Cc1cc(-c2nc3c4ccccc4ccn3c2N)c(C)s1 [Compound 83, 3-Amino-2-(2,5-dimethyl-3-thienyl)imidazo[2,1-a]isoquinoline] |
| 3 | Cn1cccc1-c1nc2c3ccccc3ccn2c1N [Compound 94, 3-Amino-2-(1-methyl-2-pyrrolyl)imidazo[2,1-a]isoquinoline] |
| 17.5 | Cc1ccccc1-c1nc2n(c1N)CCc1ccccc1-2 [Compound 96, 3-Amino-2-(2-methylphenyl)-5,6-dihydroimidazo[2,1-a]isoquinoline] |
| 12 | Cc1ccccc1-c1nc2n(c1N)C(C)(C)Cc1ccccc1-2 [Compound 104, 3-Amino-5,5-dimethyl-2-(2-methylphenyl)-5,6-dihydroimidazo[2,1-a]isoquinoline] |
| 33 | Cc1cc(O)ccc1-c1nc2n(c1N)CCc1ccccc1-2 [Compound 107, 3-Amino-2-(4-hydroxy-2-methylphenyl)-5,6-dihydroimidazo[2,1-a]isoquinoline] |
| 7.8 | CC(=O)N(Cc1ccc(C)cc1)c1c(-c2ccccc2C)nc2c3ccccc3ccn12 [Compound 151, 3-[N-Acetyl-N-(4-methylbenzyl)amino]-2-(2-methylphenyl)imidazo[2,1-a]isoquinoline] |
| 4.6 | CCCc1cccc2c1ccn1c(NCC)c(-c3ccccc3C)nc21 [Compound 163, 3-Ethylamino-2-(2-methylphenyl)-7-propylimidazo[2,1-a]isoquinoline] |
| 5.8 | CCNc1c(-c2ccccc2C)nc2c3cccc(OCc4ccccc4)c3ccn12 [Compound 169, 7-Benzyloxy-3-ethylamino-2-(2-methylphenyl)imidazo[2,1-a]isoquinoline] |
| 6.8 | Cc1ccc(-c2nc3c4ccccc4ccn3c2NCCC(C)C)c(C)c1 [Compound 189, 3-Isopentylamino-2-(2,4-dimethylphenyl)imidazo[2,1-a]isoquinoline] |
| 5.2 | CCCCCCNc1c(-c2ccccc2C)nc2c3ccccc3ccn12 [Compound 191, 3-Hexylamino-2-(2-methylphenyl)imidazo[2,1-a]isoquinoline] |

| IC50 [µM] | Compound |
| --- | --- |
| 4.4 | Cc1ccccc1-c1nc2c3ccccc3ccn2c1NC(C)c1ccccc1 (stereo not shown) [Compound 192, 2-(2-Methylphenyl)-3-[(1-phenylethyl)amino]imidazo[2,1-a]isoquinoline] |
| 8.8 | Cc1ccccc1-c1nc2c3ccccc3ccn2c1NCc1ccc2ccccc2c1Br [Compound 195] |
| 1.2 | CCN(CC)c1c(-c2ccccc2C)nc2c3cccc(Br)c3ccn12 [Compound 200, 7-Bromo-3-diethylamino-2-(2-methylphenyl)imidazo[2,1-a]isoquinoline] |
| 2.3 | CCCN(CC)c1c(-c2ccccc2F)nc2c3ccccc3ccn12 [Compound 206, 3-(N-Ethyl-N-propylamino)-2-(2-fluorophenyl)imidazo[2,1-a]isoquinoline] |
| 2.4 | CCCN(CC)c1c(-c2cccc(C)c2)nc2c3ccccc3ccn12 [Compound 211, 3-(N-Ethyl-N-propylamino)-2-(3-methylphenyl)imidazo[2,1-a]isoquinoline] |
| 3.6 | CCN(Cc1ccc(C)cc1)c1c(-c2ccccc2C)nc2c3ccccc3ccn12 [Compound 219, 3-[N-Ethyl-N-(4-methylbenzyl)amino]-2-(2-methylphenyl)imidazo[2,1-a]isoquinoline] |
| 1.9 | CCc1ccccc1-c1nc2c3ccccc3ccn2c1N=Cc1ccc(C)cc1 [Compound 226, 2-(2-Ethylphenyl)-3-(4-methylbenzylideneamino)imidazo[2,1-a]isoquinoline] |
| 20 | Cc1cc2sccc2c2nc(-c3ccccc3)c(N)n12 [Compound 230, 3-Amino-5-methyl-2-phenylimidazo[1,2-a]thieno[3,2-c]pyridine] |
| 17 | Nc1c(-c2ccccc2Cl)nc2c3ccsc3ccn12 [Compound 232, 3-Amino-2-(2-chlorophenyl)imidazo[1,2-a]thieno[3,2-c]pyridine] |
| 2.9 | CCc1cc2sccc2c2nc(-c3ccccc3C)c(N)n12 [Compound 238, 3-Amino-5-ethyl-2-(2-methylphenyl)imidazo[1,2-a]thieno[3,2-c]pyridine] |
| 26 | Cc1ccccc1-c1nc2c3ccsc3c(C)c(C)n2c1N [Compound 239, 3-Amino-5,6-dimethyl-2-(2-methylphenyl)imidazo[1,2-a]thieno[3,2-c]pyridine] |
| 9 | COc1ccccc1-c1nc2c3ccsc3cc(C)n2c1N [Compound 245, 3-Amino-2-(2-methoxyphenyl)-5-methylimidazo[1,2-a]thieno[3,2-c]pyridine] |
| 4.7 | Cc1cc(Cl)ccc1-c1nc2c3ccsc3cc(C)n2c1N [Compound 248, 3-Amino-2-(4-chloro-2-methylphenyl)-5-methylimidazo[1,2-a]thieno[3,2-c]pyridine] |
| 1.2 | Cc1cc(-c2nc3c4ccsc4ccn3c2N)c(C)s1 [Compound 264, 3-Amino-2-(2,5-dimethyl-3-thienyl)imidazo[1,2-a]thieno[3,2-c]pyridine] |
| 24 | Cn1cccc1-c1nc2c3ccsc3ccn2c1N [Compound 275] |
| 8.8 | Cc1ccccc1-c1nc2c3ccn(Cc4ccccc4)c3ccn2c1N [Compound 292, 3-Amino-7-benzyl-2-(2-methylphenyl)imidazo[1,2-a]pyrrolo[3,2-c]pyridine] |
| 8 | Cc1ccccc1-c1nc2c3sccc3cc(C)n2c1N [Compound 311, 3-Amino-5-methyl-2-(2-methylphenyl)imidazo[1,2-a]thieno[2,3-c]pyridine] |
| 8.4 | CCCN(CC)c1c(-c2ccccc2C)nc2c3sccc3ccn12 [Compound 356, 3-(N-Ethyl-N-propylamino)-2-(2-methylphenyl)imidazo[1,2-a]thieno[2,3-c]pyridine] |

| Compound | IC50 [µM] |
| --- | --- |
| CCN(CCCl)c1c(-c2ccccc2C)nc2c3ccccc3ccn12 [Compound 202, 3-[N-(2-Chloroethyl)-N-ethylamino]-2-(2-methylphenyl)imidazo[2,1-a]isoquinoline] | 9.8 |

tested on: gastric acid secretion; test: Inhibition of Gastric Acid Secretion Observed Under Stomach Perfusion Method; format: in vivo, male Sprague Dawrey rats; settings: Rattus norvegicus, ip, 1 h; rats, histamine i.v. 8 mg/kg/hr, inhibition one hour after administration (1-10 mg/kg, "intrapenetorially"); read-out: ID50 (dose showing 50% inhibition of acid secretion)
Description: Inhibition of Gastric Acid Secretion Observed Under Stomach Perfusion Method
Male Sprague Dawrey rats (6-7weeks) fasted for 24 hours were used (water ad libitum). The rats were anesthetized by intraperitoneal administration of 1.25 g/kg of urethane. The abdomen was incised, and gastral cavity was perfused with saline during experiment. The perfusate was titrated by 10 mM sodium hydroxide up to pH5.5 using an autotitrator in accordance with Stat-method. Gastric acid secretion was stimulated by intravenous administration of histamine dihydrochloride (8 mg/kg/hr). Two hours after histamine stimulation, a test compound 1-10 mg/kg) was administered intrapenetorially. The test compound was mixed with small amount of polysorbate-80, and the mixture was suspended in saline. The test compound was evaluated using ID50 (dose showing 50% inhibition of acid secretion) which was calculated based on inhibition of the acid secretion observed one hour after administration of the compound.

| Compound | ED50 [mg/kg] |
| --- | --- |
| Cc1ccc2ccn3c(N)c(-c4ccccc4C)nc3c2c1 [Compound 10, 3-Amino-9-methyl-2-(2-methylphenyl)imidazo[2,1-a]isoquinoline] | 4.2 |
| CCCc1cc2ccccc2c2nc(-c3ccccc3C)c(N)n12 [Compound 12] | 7.2 |
| COc1cn2c(N)c(-c3ccccc3C)nc2c2ccccc12 [Compound 24, 3-Amino-6-methoxy-2-(2-methylphenyl)imidazo[2,1-a]isoquinoline] | 5.4 |
| Cc1ccccc1-c1nc2c3cc(OC(=O)C(C)C)ccc3ccn2c1N [Compound 43, 3-Amino-9-isobutyryloxy-2-(2-methylphenyl)imidazo[2,1-a]isoquinoline] | 7 |
| COc1ccc2cc(C)n3c(N)c(-c4ccccc4C)nc3c2c1 [Compound 56, 3-Amino-9-methoxy-5-methyl-2-(2-methylphenyl)imidazo[2,1-a]isoquinoline] | 6.5 |
| Cc1sccc1-c1nc2c3ccccc3ccn2c1N [Compound 78, 3-Amino-2-(2-methyl-3-thienyl)imidazo[2,1-a]isoquinoline] | 1.6 |
| Cn1cccc1-c1nc2c3ccccc3ccn2c1N [Compound 94, 3-Amino-2-(1-methyl-2-pyrrolyl)imidazo[2,1-a]isoquinoline] | 5.8 |
| Cc1ccccc1-c1nc2n(c1N)CCc1ccccc1-2 [Compound 96, 3-Amino-2-(2-methylphenyl)-5,6-dihydroimidazo[2,1-a]isoquinoline] | 8.8 |
| COc1ccc2c(c1)-c1nc(-c3ccccc3C)c(N)n1CC2 [Compound 103, 3-Amino-9-methoxy-2-(2-methylphenyl)-5,6-dihydroimidazo[2,1-a]isoquinoline] | 7.4 |
| Cc1cc2sccc2c2nc(-c3ccccc3)c(N)n12 [Compound 230, 3-Amino-5-methyl-2-phenylimidazo[1,2-a]thieno[3,2-c]pyridine] | 6.2 |
| Nc1c(-c2ccccc2Cl)nc2c3ccsc3ccn12 [Compound 232, 3-Amino-2-(2-chlorophenyl)imidazo[1,2-a]thieno[3,2-c]pyridine] | 3.2 |
